Measurements from patent publication US20060165641A1, “Cosmetic compositions containing combinations of hydroxamate derivatives and antioxidants in a liposomal delivery system” (priority 2005, published 2006).
Values joined by “and” are separate entries in the source; they are usually repeats but may differ in a detail not shown here. Equal entries are not always repeated. “Also recorded” adds a separate entry of the source. Where two headings read alike, the source gives them in different places.

Assays:
[1] = system: normal human keratinocytes; experiment: UVB-induced PGE2 production by keratinocytes (ELISA, normalized to MTT viability); format: cell-based; conditions: UVB 30 mJ/cm2; SHA at as low as 5 uM
Protocol: The anti-inflammatory effect of SHA was measured by pretreating normal human keratinocytes with different concentrations of SHA for 24 hrs. The cells were UVB irradiated with a single sub-lethal dose of 30 mJ/cm2 using a Phillips TL20W12 tube. Cells were further incubated for 24 hrs with SHA and prostaglandin E2 (PGE2) levels in the supernatant media samples were analyzed by ELISA. 20 uM indomethacin was included as a positive control as an anti-inflammatory agent. The cell viability was also tested at the end of the 24 hr incubation period using the MTT metabolism method. […] The data was expressed as PGE2 production normalized to cell viability. PGE2, or prostaglandin E2, is an inflammatory mediator produced during inflammatory reactions in the skin. Any agents that inhibit the production of PGE2 will therefore have a beneficial effect of preventing inflammation (in other words, an anti-inflammatory effect). The top three bars display the effect of SHA at various concentrations on the UVB irradiated cells, the 4th bar the effect of indomethscin, the 5th bar the effect of UVB radiation on untreated cells, while the bottom bar is a control (untreated cells, not UVB irradiated).

[2] = system: normal human keratinocytes; experiment: Cornified envelope formation / differentiation of keratinocytes; format: cell-based; conditions: 0.15 mM calcium medium; relative to high calcium (1 mM) cultures
Protocol: To measure the induction of differentiation of keratinocytes, cultures of normal human keratinocytes were incubated with medium containing 0.15 mM calcium (low calcium prevents CE formation and keeps cells in growth mode). The cells were treated with different amounts of SHA and the amount of the highly cross-linked, detergent insoluble CE formation was quantified after dissolving the cells in 2% SDS/20 mM Dithiothrietol (DTT). The insoluble CE was centrifuged, resuspended in water and the optical density of the turbid solution was measured at 400 nm. The increase in turbidity indicates increased CE formation. […] The results, presented in the right column, are expressed relative to high calcium (1 mM) containing cultures.

fibroblasts [3] = experiment: Fibroblast collagen-1 secretion (ELISA); format: cell-based; conditions: 0.1 mM SHA, 48 hrs
Protocol: (§1) In addition, SHA stimulates collagen and integrin synthesis of keratinocytes and fibroblasts. This was measured by treating keratinocyte or fibroblast cultures with SHA for 48 hrs and testing the medium for collagen and integrin secretion using appropriate antibodies using commercially available ELISA kits. The ELISA measures the secretion of collagen-1 and three different types of integrins, integrin alpha-2, -3 and -5. […] The data, presented in the right column, are expressed as a % stimulation of collagen secretion as compared to the control. […] Stimulation of collagen synthesis would provide more integrity to the dermis and would benefit in reducing wrinkles and will provide anti-aging benefits.

keratinocytes = experiment: Integrin expression of keratinocytes (ELISA); format: cell-based; conditions: 48 hrs
Protocol: as §1
(§2) SHA can also stimulate integrin expression of fibroblasts and keratinocytes. […] In each table, that left column lists the various concentrations of SHA used in the tests, while the three right columns present integrin expression data, for different varieties of integrin, expressed as a % stimulation with respect to the control (0 mM SHA). […] Integrin is a vital component of the cell extracellular matrix that helps in cell adhesion and attachment. The increased amount of integrin helps cells to attach and grow, making skin firmer and more cellular. […]

fibroblasts [4] = experiment: Integrin expression of fibroblasts (ELISA); format: cell-based; conditions: 48 hrs
Protocol: as §1, §2

mushroom tyrosinase = experiment: Inhibition of mushroom tyrosinase (tyrosine to DOPAchrome, OD475); format: biochemical
Protocol: The skin lightening effect of SHA was determined by measuring the inhibition of tyrosinase since tyrosinase is the enzyme that catalyzes the rate limiting steps in melanin synthesis. Inhibition of mushroom tyrosinase was assayed by measuring conversion of tyrosine to DOPAchrome (OD475) in the presence of varying concentrations of test sample. […] Thirty nanomolar SHA inhibited over 30% of the activity. The IC50 is 60 nM.

[5] = biological target: MMP-9 (also known as gelatinase) (Homo sapiens, UniProt P14780); experiment: MMP inhibition, fluorogenic peptide assay; conditions: for MMP-9 inhibitory activity (in words): fluorogenic peptide assay
Sequence of MMP-9 (also known as gelatinase) (P14780 94-707, species assumed): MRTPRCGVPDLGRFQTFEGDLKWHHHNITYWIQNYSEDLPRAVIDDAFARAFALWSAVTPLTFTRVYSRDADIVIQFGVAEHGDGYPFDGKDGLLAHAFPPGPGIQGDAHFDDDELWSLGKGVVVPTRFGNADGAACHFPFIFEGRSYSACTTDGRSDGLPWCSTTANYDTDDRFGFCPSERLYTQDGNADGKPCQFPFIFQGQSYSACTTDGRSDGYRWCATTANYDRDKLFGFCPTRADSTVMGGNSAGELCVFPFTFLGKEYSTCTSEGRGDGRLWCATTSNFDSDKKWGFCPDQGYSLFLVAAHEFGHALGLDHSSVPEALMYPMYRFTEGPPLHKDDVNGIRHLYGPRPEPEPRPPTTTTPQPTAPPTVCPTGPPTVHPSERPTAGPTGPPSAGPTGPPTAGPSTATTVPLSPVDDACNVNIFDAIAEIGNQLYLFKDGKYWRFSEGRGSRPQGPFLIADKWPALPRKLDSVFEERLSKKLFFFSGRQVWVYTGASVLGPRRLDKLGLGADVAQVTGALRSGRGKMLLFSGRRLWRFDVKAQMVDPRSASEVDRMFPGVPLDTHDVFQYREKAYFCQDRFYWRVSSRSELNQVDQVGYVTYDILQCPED
Protocol: In this system, the substrate is a fluorogenic peptide which, when cleaved by the MMP, undergoes an increase in fluorescence. The reaction is followed by monitoring the increase in the fluorescence of the reaction mixture for 2 hours. The rate of fluorescence increase is a measure of the reaction rate. The assay is performed in microtiter plates using triplicate wells per condition. The test sample contains specific MMP and the putative MMP inhibitor at several concentrations and the mean rate of the reaction at each of these conditions is compared to the reaction rate in the absence of inhibitor. The concentration of the test sample that inhibits the reaction rate (i.e., MMP inhibition) by 50% is defined as the “50% Inhibitory Concentration” or IC50.

[6] = UV-induced lipid peroxidation of lecithin liposomes (malonaldehyde); conditions: relative to EGCG taken as 100%
Protocol: The ability of NDGA to prevent UV-induced lipid peroxidation was measured in comparison to other antioxidant industry standards such as vitamin E, vitamin C and green tea polyphenols. The assay was performed by irradiating a suspension of lecithin liposomes with UV light for 4 hours, in the absence or in the presence of the different compounds. Malonaldehyde levels (a breakdown product of oxidized lipids) were measured in aliquots of the reaction mixture at different times. The rate of lipid oxidation was calculated from the increase in malonaldehyde content. Relative potency was calculated by taking epigallocatechin gallate (EGCG) as 100%. The antioxidant used in the comparisons are listed in the left column. The middle column lists the effective concentration at which the compound is 50% effective (EC 50) for inhibition of lipid peroxidation, while the right column lists the relative potency of the samples, as compared to polyphenol of tea, which is taken as 100.

[7] = Singlet oxygen scavenging test (Rose Bengal / iodide); conditions: % inhibition of control; compared with Coenzyme Q10 and green tea polyphenols
Protocol: Singlet forms of molecular oxygen are excited electronic configurations that are more reactive than the spin-restricted ground state. These forms can be generated in tissues by a variety of mechanisms. Particularly relevant to the skin is light-induced production of singlet oxygen. The singlet oxygen scavenging test is performed by irradiation of a reaction mixture that contains a photosensitizer dye (Rose Bengal) and iodide ions. The excited dye transfers its energy to ground state oxygen to generate singlet oxygen which in turn oxidizes iodide to I3^−. Production of I3^− is followed spectrophotometrically at 355 nm. If a test sample is a singlet oxygen quencher, it will decrease the rate of I3^− production.

[8] = Hydroxyl radical scavenging (Fenton reaction, terephthalic acid); conditions: compared with green tea polyphenols, glutathione, vitamin E
Protocol: Hydroxyl radical scavenging of NDGA was measured by generation of .OH via the Fenton reaction with terephthalic acid as oxidizable substrate. Hydroxylation of terephthalic acid results in production of a fluorescent product. The rate of the reaction is determined by measuring the time course of fluorescence increase. If a test sample is a hydroxyl radical scavenger, it will decrease the reaction rate.
FIG. 6 is a table displaying hydroxyl radical scavenging activity of NDGA in comparison with green tea polyphenols (GTP) and Vitamin E, indicated in the left column.

[9] = system: AP-1 transcription factor; conditions: keratinocyte cell line HaCaT; very low levels; cited from earlier work
MMP 13 [10] = conditions: primary human chondrocytes; cited from earlier work
MMP 13 [11] = conditions: human chondrosarcoma cell line SW1353; cited from earlier work
[12] = system: normal human keratinocytes; experiment: UVB-induced TNF-α production by keratinocytes (ELISA, normalized to MTT viability); conditions: UVB 35 mJ/cm2, 24 hrs; low concentrations of NDGA

IC50 ([5]; IC50 MMP-9 inhibition, fluorogenic peptide, 2 hours) | SMILES | PGE2 production normalized to cell viability (anti-inflammatory effect) [1] | cornified envelope formation (terminal differentiation) [2] | stimulation of collagen secretion compared to control (fibroblasts [3]) | integrin expression (alpha-2, -3, -5) vs control (keratinocytes) | integrin expression (alpha-2, -3, -5) vs control (fibroblasts [4]) | IC50 (mushroom tyrosinase) [µM] | inhibition of tyrosinase activity (mushroom tyrosinase; Thirty nanomolar SHA) | MMP-9 inhibitory activity (in words) [5] | relative potency, inhibition of lipid peroxidation [6] | singlet oxygen scavenging activity [7] | hydroxyl radical scavenging activity [8] | inhibition of AP-1 activation [9] | inhibition of TNF-α induced MMP 13 mRNA and protein induction (MMP 13 [10]) | inhibition of TNF-α induced MMP 13 mRNA and protein induction (MMP 13 [11]) | TNF alpha production normalized to cell viability [12]
 | O=C(NO)c1ccccc1O [SHA, Salicylhydroxamate] | potent anti-inflammatory effects | induces terminal differentiation of keratinocytes, increases the formation of CE | significantly stimulated the collagen synthesis of fibroblasts | increasing the integrin expression of keratinocytes | increasing the integrin expression of keratinocytes and fibroblasts | 0.06 | over 30% | excellent and potent inhibitors of matrix metalloproteases |  |  |  |  |  |  | 
~232 µM and ~100 µM | CC(Cc1ccc(O)c(O)c1)C(C)Cc1ccc(O)c(O)c1 (stereo not drawn) [NDGA, nordihydroguaiaretic acid] |  |  |  |  |  |  |  | very high MMP-9 inhibitory activity | twice as potent as the next most effective antioxidant (EGCG); also recorded: two orders of magnitude more potent than the vitamin E varieties | very powerful singlet oxygen scavenger, equivalent to green tea polyphenols and better than coenzyme Q10 | slightly more effective than green tea polyphenols and far more potent than glutathione or vitamin E | at very low levels inhibits AP-1 activation | inhibits TNF-α induced MMP 13 mRNA and protein induction | inhibits TNF-α induced MMP 13 mRNA and protein induction | effectively blocked UVB-induced inflammation in keratinocytes; also recorded: much more effective than dexamethasone or green tea polyphenols
 | NC(Cc1c[nH]c2ccccc12)C(=O)NO (stereo not drawn) [tryptophan hydroxamate] |  |  |  |  |  |  |  | excellent and potent inhibitors of matrix metalloproteases |  |  |  |  |  |  | 
